Source: the NIST ThermoML archive (doi:10.1021/je030147g)
± gives the expanded uncertainty stated by the source.

What was measured:
[1] = refractive index (Na D-line) (dimensionless); xn = mol fraction of the nth substance listed; conditions: 101.33 kPa, Liquid
[2] = xn = mol fraction of the nth substance listed; conditions: 101.33 kPa, Liquid

CCCCN(CCCC)CCCC [tributylamine] + C1CCOC1
Conditions	mass density, [2] [kg/m3]	refractive index, [1]	speed of sound, [2] [m/s]	viscosity, [2] [mPa·s]
298.15 K, x1 = 0.1033	853.3 ± 0.8	1.412 ± 0.0012	1283 ± 6	0.571 ± 0.015
298.15 K, x1 = 0.2033	833.4 ± 0.8	1.415 ± 0.0012	1278 ± 6	0.656 ± 0.017
298.15 K, x1 = 0.3041	818.9 ± 0.8	1.418 ± 0.0012	1274 ± 6	0.741 ± 0.019
298.15 K, x1 = 0.4012	808.1 ± 0.8	1.42 ± 0.0012	1271 ± 6	0.818 ± 0.021
298.15 K, x1 = 0.5024	799.2 ± 0.8	1.4229 ± 0.0012	1269 ± 6	0.897 ± 0.023
298.15 K, x1 = 0.5974	792.5 ± 0.8	1.4235 ± 0.0012	1267 ± 6	0.967 ± 0.024
298.15 K, x1 = 0.6814	787.5 ± 0.8	1.4249 ± 0.0013	1266 ± 6	1.028 ± 0.026
298.15 K, x1 = 0.7898	782.1 ± 0.8	1.4265 ± 0.0013	1264 ± 6	1.1 ± 0.027
298.15 K, x1 = 0.8941	777.8 ± 0.8	1.4269 ± 0.0013	1263 ± 6	1.167 ± 0.029
298.15 K, x1 = 1	773.9 ± 0.8	1.4276 ± 0.0013	1262 ± 6	1.239 ± 0.03
303.15 K, x1 = 0.1033	847.9 ± 0.9	1.4094 ± 0.0012	–	0.539 ± 0.015
303.15 K, x1 = 0.2033	828.4 ± 0.8	1.4141 ± 0.0012	–	0.618 ± 0.017
303.15 K, x1 = 0.3041	814.2 ± 0.8	1.4155 ± 0.0012	–	0.693 ± 0.018
303.15 K, x1 = 0.4012	803.5 ± 0.8	1.4178 ± 0.0012	–	0.763 ± 0.02
303.15 K, x1 = 0.5024	794.7 ± 0.8	1.4203 ± 0.0012	–	0.833 ± 0.021
303.15 K, x1 = 0.5974	788.2 ± 0.8	1.4211 ± 0.0012	–	0.896 ± 0.023
303.15 K, x1 = 0.6814	783.1 ± 0.8	1.4226 ± 0.0013	–	0.949 ± 0.024
303.15 K, x1 = 0.7898	777.9 ± 0.8	1.4238 ± 0.0013	–	1.014 ± 0.025
303.15 K, x1 = 0.8941	773.6 ± 0.8	1.4246 ± 0.0013	–	1.071 ± 0.027
303.15 K, x1 = 1	769.2 ± 0.8	1.4254 ± 0.0013	–	1.124 ± 0.028
308.15 K, x1 = 0.1033	842.5 ± 0.9	1.4068 ± 0.0012	–	0.509 ± 0.014
308.15 K, x1 = 0.2033	823.5 ± 0.9	–	–	0.581 ± 0.016
308.15 K, x1 = 0.3041	809.3 ± 0.9	1.413 ± 0.0012	–	0.646 ± 0.017
308.15 K, x1 = 0.4012	798.9 ± 0.9	1.4156 ± 0.0012	–	0.708 ± 0.019
308.15 K, x1 = 0.5024	790.3 ± 0.9	1.4178 ± 0.0012	–	0.769 ± 0.02
308.15 K, x1 = 0.5974	783.8 ± 0.9	1.4188 ± 0.0012	–	0.825 ± 0.021
308.15 K, x1 = 0.6814	778.9 ± 0.9	1.4203 ± 0.0013	–	0.871 ± 0.022
308.15 K, x1 = 0.7898	773.6 ± 0.9	1.4212 ± 0.0013	–	0.928 ± 0.023
308.15 K, x1 = 0.8941	769.4 ± 0.9	1.4224 ± 0.0013	–	0.976 ± 0.025
308.15 K, x1 = 1	765.7 ± 0.9	1.4228 ± 0.0013	–	1.02 ± 0.026

C1CCOC1 [tetrahydrofuran] + CCCCN(CCCC)CCCC
x2 = 0
Conditions	mass density, 298.15 K [kg/m3]	mass density, 303.15 K [kg/m3]	mass density, 308.15 K [kg/m3]	refractive index, 298.15 K	refractive index, 303.15 K	refractive index, 308.15 K	speed of sound, 298.15 K [m/s]	viscosity, 298.15 K [mPa·s]	viscosity, 303.15 K [mPa·s]	viscosity, 308.15 K [mPa·s]
[1]	–	–	–	1.4049 ± 0.0012	1.4026 ± 0.0012	1.3998 ± 0.0012	–	–	–	–
[2]	882.9 ± 0.8	877.5 ± 0.9	871.2 ± 0.9	–	–	–	1288 ± 6	0.485 ± 0.014	0.46 ± 0.013	0.439 ± 0.013
